Legend:
Type in all cases: in vivo
[1] = tested on: Eleusine indica; experiment: Glasshouse post-emergence test, visual damage, Tables B1-2 and B1-3; settings: 14 days after application
Procedure: Seeds of a variety of test species are sown in standard soil in pots. For each treatment, three replicate pots containing 10-15 plants per one-inch pot were sprayed at the 2-3 leaf stage. […] The test plants are then grown in a glasshouse under controlled conditions in a glasshouse (at 24/16° C., day/night; 14 hours light; 65% humidity) and watered twice daily. Plants were assessed for visual damage compared to the untreated control 14 days after application (0=0% damage; 100=100% damage).

[2] = tested on: Echinochloa Crus-galli; experiment: Further glasshouse test versus other ACCase-inhibiting herbicides, Table B2-5; settings: 21 days after application
Excerpt: (§1) Further tests were employed to test the efficacy of a compound of Formula I versus other ACCase-inhibiting herbicides. The five main targets were Lolium multiflorum, Eleusine indica, Digitaria insularis, Sorghum halepense and Echinochloa crus-galli. Collectively, the populations contained all the major target-site resistance mutations affecting ACCase herbicides. Two L. multiflorum (LM-NTSR-1 and LM-NTSR-2) and one E. crus-galli (ECG-NTSR-1) populations were characterised exclusively by non-target-site resistance (“NTSR”). The target-site resistant L. multiflorum and E. indication populations were 100% homozygous for different ACCase mutations whilst the D. insularis, S. halepense and E. crus-galli samples contained a mixture of homozygous wild and mutant individuals at different genotypic frequencies. Additional underlying NTSR cannot be ruled out in the populations characterised by target-site resistance.
(§2) Around 50 seeds of each of the 24 weed populations were sown in 12-cm pots containing a mixture of peat and compost in a 1:1 ratio. The pots were watered, fertilised and kept in controlled glasshouse conditions set at 24° C./16 hr day, 18° C. night, 65% relative humidity, and a photon flux density of approximately 250 μmol quanta m^−2 s^−1 for Lolium multiflorum. The E. indica, D. insularis, S. halepense and E. crus-galli plants were kept in a separate glasshouse bay characterised by a 17 H photoperiod of 180 μmol m^−2 s^−1 with temperatures of 25° C. day and 19° C. night and 65% relative humidity. When the plants were at the two to four-leaf stage, they were treated with the various ACCase-inhibiting herbicides at 0, 15, 30, 60, 120 and 240 g ai ha^−1 in a spray cabinet mounted with a single mobile Teejet flat fan nozzle (11002VS) calibrated to deliver 200 L ha^−1 at 200 kPa. The L. multiflorum populations were treated by a compound of Formula Ic, clodinafop-propargyl, pinoxaden, cycloxydim and clethodim and the warm season grass weeds E. indica, D. insularis, S. halepense and E. crus-galli were sprayed with a Compound Ic and the commonly employed haloxyfop-methyl and clethodim. Three replicate pots were used per population. Plants were assessed for visual damage compared to the untreated control 21 days after application (0=0% damage; 100=100% damage).

[3] = tested on: Digitaria sanguinalis; experiment: Glasshouse post-emergence test, visual damage, Table B1-4; settings: 14 days after application
Procedure: Seeds of a variety of test species are sown in standard soil in pots. For each treatment, three replicate pots containing 10-15 plants per one-inch pot were sprayed at the 2-3 leaf stage. Clethodim and Compound (Ic) were each applied at 15, 30, 60 and 120 g ai/ha. The test plants are then grown in a glasshouse under controlled conditions in a glasshouse (at 24/16° C., day/night; 14 hours light; 65% humidity) and watered twice daily. Plants were assessed for visual damage compared to the untreated control 14 days after application (0=0% damage; 100=100% damage).

[4] = tested on: Volunteer corn; experiment: 26 field trials, control of volunteer corn, Table B1-6
[5] = tested on: Sorghum halepense; experiment: Further glasshouse test versus other ACCase-inhibiting herbicides, Table B2-4; settings: 21 days after application
Excerpt: as §1, §2

Compound: CC#Cc1ccc(C2=C(OC(=O)OC)C3CCC(C3)C2=O)c(OC)c1 (centres unmarked) [Compound Ic]
- visual damage ([1]; Table B1-2, biotype 87% I1781L (heterozygous), 15 g/ha): 97%
- visual damage ([1]; Table B1-2, biotype 87% I1781L (heterozygous), 30 g/ha): 100%
- visual damage ([1]; Table B1-2, biotype 87% I1781L (heterozygous), 60 g/ha): 100%
- visual damage ([1]; Table B1-2, biotype 87% I1781L (heterozygous), 120 g/ha): 100%
- visual damage ([1]; Table B1-2, biotype D2078G + W2027C (heterozygous), first entry, 15 g/ha): 87%
- visual damage ([1]; Table B1-2, biotype D2078G + W2027C (heterozygous), first entry, 30 g/ha): 100%
- visual damage ([1]; Table B1-2, biotype D2078G + W2027C (heterozygous), first entry, 60 g/ha): 100%
- visual damage ([1]; Table B1-2, biotype D2078G + W2027C (heterozygous), first entry, 120 g/ha): 100%
- visual damage ([1]; Table B1-2, biotype D2078G + W2027C (heterozygous), second entry, 15 g/ha): 83%
- visual damage ([1]; Table B1-2, biotype D2078G + W2027C (heterozygous), second entry, 30 g/ha): 100%
- visual damage ([1]; Table B1-2, biotype D2078G + W2027C (heterozygous), second entry, 60 g/ha): 100%
- visual damage ([1]; Table B1-2, biotype D2078G + W2027C (heterozygous), second entry, 120 g/ha): 100%
- visual damage ([1]; Table B1-2, biotype I2041N (heterozygous), 15 g/ha): 70%
- visual damage ([1]; Table B1-2, biotype I2041N (heterozygous), 30 g/ha): 100%
- visual damage ([1]; Table B1-2, biotype I2041N (heterozygous), 60 g/ha): 100%
- visual damage ([1]; Table B1-2, biotype I2041N (heterozygous), 120 g/ha): 100%
- visual damage ([1]; Table B1-2, biotype NTSR (non-target site resistance), 1 g/ha): 20%
- visual damage ([1]; Table B1-2, biotype NTSR (non-target site resistance), 2 g/ha): 40%
- visual damage ([1]; Table B1-2, biotype NTSR (non-target site resistance), 4 g/ha): 60%
- visual damage ([1]; Table B1-2, biotype NTSR (non-target site resistance), 8 g/ha): 73%
- visual damage ([1]; Table B1-2, biotype Sensitive, 15 g/ha): 100%
- visual damage ([1]; Table B1-2, biotype Sensitive, 30 g/ha): 100%
- visual damage ([1]; Table B1-2, biotype Sensitive, 60 g/ha): 100%
- visual damage ([1]; Table B1-2, biotype Sensitive, 120 g/ha): 100%
- visual damage ([1]; Table B1-3, Pop1 (mix of sensitive, D2078G and G2096A biotypes), 15 g/ha): 98%
- visual damage ([1]; Table B1-3, Pop1 (mix of sensitive, D2078G and G2096A biotypes), 30 g/ha): 100%
- visual damage ([1]; Table B1-3, Pop1 (mix of sensitive, D2078G and G2096A biotypes), 60 g/ha): 100%
- visual damage ([1]; Table B1-3, Pop1 (mix of sensitive, D2078G and G2096A biotypes), 120 g/ha): 100%
- visual damage ([1]; Table B1-3, Pop2 (mix of sensitive, D2078G and G2096A biotypes), 15 g/ha): 86%
- visual damage ([1]; Table B1-3, Pop2 (mix of sensitive, D2078G and G2096A biotypes), 30 g/ha): 100%
- visual damage ([1]; Table B1-3, Pop2 (mix of sensitive, D2078G and G2096A biotypes), 60 g/ha): 100%
- visual damage ([1]; Table B1-3, Pop2 (mix of sensitive, D2078G and G2096A biotypes), 120 g/ha): 100%
- visual damage ([1]; Table B1-3, biotype Sensitive, 15 g/ha): 100%
- visual damage ([1]; Table B1-3, biotype Sensitive, 30 g/ha): 100%
- visual damage ([1]; Table B1-3, biotype Sensitive, 60 g/ha): 100%
- visual damage ([1]; Table B1-3, biotype Sensitive, 120 g/ha): 100%
- visual damage ([2]; biotype Sensitive, 15 g/ha): 100%
- visual damage ([2]; biotype Sensitive, 30 g/ha): 100%
- visual damage ([2]; biotype Sensitive, 60 g/ha): 100%
- visual damage ([2]; biotype Sensitive, 120 g/ha): 100%
- visual damage ([2]; biotype Sensitive, 240 g/ha): 100%
- visual damage ([2]; biotype W2027C, 15 g/ha): 100%
- visual damage ([2]; biotype W2027C, 30 g/ha): 100%
- visual damage ([2]; biotype W2027C, 60 g/ha): 100%
- visual damage ([2]; biotype W2027C, 120 g/ha): 100%
- visual damage ([2]; biotype W2027C, 240 g/ha): 100%
- visual damage ([2]; population ECG-NTSR-1 (non-target-site resistance), 15 g/ha): 90%
- visual damage ([2]; population ECG-NTSR-1 (non-target-site resistance), 30 g/ha): 100%
- visual damage ([2]; population ECG-NTSR-1 (non-target-site resistance), 60 g/ha): 100%
- visual damage ([2]; population ECG-NTSR-1 (non-target-site resistance), 120 g/ha): 100%
- visual damage ([2]; population ECG-NTSR-1 (non-target-site resistance), 240 g/ha): 100%
- visual damage ([3]; biotype I1781L (heterozygous), 15 g/ha): 73%
- visual damage ([3]; biotype I1781L (heterozygous), 30 g/ha): 90%
- visual damage ([3]; biotype I1781L (heterozygous), 60 g/ha): 100%
- visual damage ([3]; biotype I1781L (heterozygous), 120 g/ha): 100%
- visual damage ([3]; biotype Sensitive, 15 g/ha): 90%
- visual damage ([3]; biotype Sensitive, 30 g/ha): 100%
- visual damage ([3]; biotype Sensitive, 60 g/ha): 100%
- visual damage ([3]; biotype Sensitive, 120 g/ha): 100%
- Control (14d) ([4]; 25 g/ha): 93%
- Control (28d) ([4]; 25 g/ha): 99%
- Control (14d) ([4]; 50 g/ha): 99%
- Control (28d) ([4]; 50 g/ha): 100%
- Control (14d) ([4]; 100 g/ha): 99%
- Control (28d) ([4]; 100 g/ha): 100%
- Control (14d) ([4]; 200 g/ha): 99%
- Control (28d) ([4]; 200 g/ha): 100%
- visual damage ([5]; biotype Sensitive, 15 g/ha): 95%
- visual damage ([5]; biotype Sensitive, 30 g/ha): 97%
- visual damage ([5]; biotype Sensitive, 60 g/ha): 100%
- visual damage ([5]; biotype Sensitive, 120 g/ha): 100%
- visual damage ([5]; biotype Sensitive, 240 g/ha): 100%
- visual damage ([5]; biotype W2027C, 15 g/ha): 65%
- visual damage ([5]; biotype W2027C, 30 g/ha): 80%
- visual damage ([5]; biotype W2027C, 60 g/ha): 98%
- visual damage ([5]; biotype W2027C, 120 g/ha): 100%
- visual damage ([5]; biotype W2027C, 240 g/ha): 100%

— patent US20260215428A1, “WEED CONTROL METHOD” (SYNGENTA CROP PROTECTION AG, priority 2023, published 2026)
